Results on seven compounds are retold here after US11731977B2, “SGC stimulators” (Cyclerion Therapeutics, Inc., priority 2016, dated 2023).

Structures are written as SMILES. Bounds are passed on as bounds.

The test deals with T1, sGC enzyme (Homo sapiens, UniProt Q02108+Q02153).
T1 construct: sGC enzyme activity values in HEK cells, determined by the GloSensor assay; host or cells: HEK293 cells stably expressing GloSensor 40F cGMP biosensor
T1 sequence (Q02153 1-619): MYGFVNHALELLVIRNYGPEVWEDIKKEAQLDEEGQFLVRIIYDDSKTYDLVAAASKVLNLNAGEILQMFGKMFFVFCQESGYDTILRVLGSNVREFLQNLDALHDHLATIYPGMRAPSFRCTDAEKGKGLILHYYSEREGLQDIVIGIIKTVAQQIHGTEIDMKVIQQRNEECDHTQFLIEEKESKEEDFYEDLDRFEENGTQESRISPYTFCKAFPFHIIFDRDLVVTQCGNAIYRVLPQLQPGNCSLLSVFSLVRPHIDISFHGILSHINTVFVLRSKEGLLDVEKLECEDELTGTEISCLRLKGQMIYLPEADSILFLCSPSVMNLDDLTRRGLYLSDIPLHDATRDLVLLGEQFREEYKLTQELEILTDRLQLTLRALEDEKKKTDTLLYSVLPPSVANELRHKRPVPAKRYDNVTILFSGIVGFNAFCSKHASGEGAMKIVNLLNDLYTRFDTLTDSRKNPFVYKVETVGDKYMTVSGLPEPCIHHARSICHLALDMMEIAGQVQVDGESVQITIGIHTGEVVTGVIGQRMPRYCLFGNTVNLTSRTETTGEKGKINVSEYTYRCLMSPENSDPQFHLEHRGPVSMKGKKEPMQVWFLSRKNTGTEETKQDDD
T1 sequence (Q02108 1-690): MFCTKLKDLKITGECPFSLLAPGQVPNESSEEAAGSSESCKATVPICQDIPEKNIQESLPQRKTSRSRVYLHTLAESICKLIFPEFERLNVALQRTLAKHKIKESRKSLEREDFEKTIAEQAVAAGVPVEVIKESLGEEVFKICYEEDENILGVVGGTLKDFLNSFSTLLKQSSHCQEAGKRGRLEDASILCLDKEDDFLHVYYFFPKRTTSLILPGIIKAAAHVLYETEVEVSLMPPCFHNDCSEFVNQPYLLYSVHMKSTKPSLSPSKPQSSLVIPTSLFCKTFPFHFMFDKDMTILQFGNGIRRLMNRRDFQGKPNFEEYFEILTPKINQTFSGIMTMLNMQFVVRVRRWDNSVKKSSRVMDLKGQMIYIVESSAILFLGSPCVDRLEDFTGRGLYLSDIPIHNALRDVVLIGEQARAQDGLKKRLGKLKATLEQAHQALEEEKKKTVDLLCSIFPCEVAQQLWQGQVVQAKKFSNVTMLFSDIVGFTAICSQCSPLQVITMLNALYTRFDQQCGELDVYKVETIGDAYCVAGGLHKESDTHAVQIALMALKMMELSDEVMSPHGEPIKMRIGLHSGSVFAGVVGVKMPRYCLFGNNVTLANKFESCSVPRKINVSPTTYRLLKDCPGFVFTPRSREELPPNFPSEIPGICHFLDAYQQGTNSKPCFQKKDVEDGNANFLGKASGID
Description: cGMP GloSensor cell-based assay, 384-well format (Example 2a). Conditions: HEK293 GloSensor 40F cGMP cells; 10 μM DETA-NONOate; 50% of high control (30 μM Compound Y); read-out: Abs EC50. An outline of the steps: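 HEK293 cells expressing GloSensor 40F cGMP biosensor, pre-equilibrated with GloSensor substrate 90 min at 25 °C, then given compound (final 0.029–30000 nM) plus 10 μM DETA-NONOate; luminescence read after 55 min at room temperature. Normalized to 1% DMSO (low) and 30 μM Compound Y (high); Abs EC50 from 4-parameter fit, n=2, geometric mean.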
Regarding `Fc1ccccc1Cc1nc(-c2nc(C(F)(F)F)n[nH]2)cn2ccnc12` [Compound I-1, 8-(2-fluorobenzyl)-6-(3-(trifluoromethyl)-1H-1,2,4-triazol-5-yl)imidazo[1,2-a]pyrazine], the EC50 (commonly the concentration needed to bring the measured effect to its halfway point) was at most 100 nM. Consider `Fc1cccc(Cc2nc(-c3nc(C(F)(F)F)n[nH]3)cn3ccnc23)c1` [Compound I-2, 8-(3-Fluorobenzyl)-6-(3-(trifluoromethyl)-1H-1,2,4-triazol-5-yl)imidazo[1,2-a]pyrazine], for which the concentration for a half-maximal effect (EC50) is at most 100 nM. The figure for `Fc1ccccc1Cc1nc(-c2nc(C(F)(F)F)n[nH]2)cn2ncnc12` [Compound I-16, 8-(2-Fluorobenzyl)-6-(3-(trifluoromethyl)-1H-1,2,4-triazol-5-yl)-[1,2,4]triazolo[1,5-a]pyrazine] is at most 100 nM; for `Fc1cccc(Cc2nc(-c3nc(C(F)(F)F)n[nH]3)cn3ccnc23)c1F` [Compound I-10, 8-(2,3-Difluorobenzyl)-6-(3-(trifluoromethyl)-1H-1,2,4-triazol-5-yl)imidazo[1,2-a]pyrazine] it is at most 100 nM; for `Fc1cccc(Cc2nc(-c3nc(C(F)F)n[nH]3)cn3ccnc23)c1` [Compound I-3, 6-(3-(Difluoromethyl)-1H-1,2,4-triazol-5-yl)-8-(3-fluorobenzyl)imidazo[1,2-a]pyrazine] it is 100 to 1000 nM. As to `Fc1cccc(Cc2nc(-c3nc(C(F)F)n[nH]3)cn3ccnc23)c1F` [Compound I-11, 8-(2,3-Difluorobenzyl)-6-(3-(difluoromethyl)-1H-1,2,4-triazol-5-yl)imidazo[1,2-a]pyrazine], the EC50 lay in the range of 100 to 1000 nM.

Consider `Fc1ccccc1Cc1nc(-c2nc(C(F)F)n[nH]2)cn2ccnc12` [Compound I-14, 8-(2-Fluorobenzyl)-6-(3-(difluoromethyl)-1H-1,2,4-triazol-5-yl)imidazo[1,2-a]pyrazine], for which the EC50 is at most 100 nM.
